Reference: PubChem BioAssay (NCI)
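Interpolation was linear, between the two tested concentrations surrounding the appropriate level; five concentrations were tested over 48 hours in 96-well plates. TGI marks complete inhibition of growth.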

Columns and labels:
Assay in all cases: inhibition of tumour cell growth, NCI panel, 48 h
786-0 renal = system: 786-0 renal
A498 renal = system: A498 renal
A549 NSCLC = system: A549 NSCLC
ACHN renal = system: ACHN renal
CAKI-1 renal = system: CAKI-1 renal
CCRF-CEM leukemia = system: CCRF-CEM leukemia
COLO 205 colon = system: COLO 205 colon
DMS 114 small cell lung = system: DMS 114 small cell lung
DMS 273 small cell lung = system: DMS 273 small cell lung
EKVX NSCLC = system: EKVX NSCLC
HCC-2998 colon = system: HCC-2998 colon
HCT-116 colon = system: HCT-116 colon
HCT-15 colon = system: HCT-15 colon
HL-60(TB) leukemia = system: HL-60(TB) leukemia
HOP-18 NSCLC = system: HOP-18 NSCLC
HOP-92 NSCLC = system: HOP-92 NSCLC
HT29 colon = system: HT29 colon
IGROV1 ovarian = system: IGROV1 ovarian
K-562 leukemia = system: K-562 leukemia
KM12 colon = system: KM12 colon
KM20L2 colon = system: KM20L2 colon
LOX IMVI melanoma = system: LOX IMVI melanoma
LXFL 529 NSCLC = system: LXFL 529 NSCLC
M14 melanoma = system: M14 melanoma
M19-MEL melanoma = system: M19-MEL melanoma
MALME-3M melanoma = system: MALME-3M melanoma
MOLT-4 leukemia = system: MOLT-4 leukemia
NCI-H226 lung = system: NCI-H226 lung
NCI-H23 lung = system: NCI-H23 lung
NCI-H460 lung = system: NCI-H460 lung
NCI-H522 lung = system: NCI-H522 lung
OVCAR-3 ovarian = system: OVCAR-3 ovarian
OVCAR-4 ovarian = system: OVCAR-4 ovarian
OVCAR-5 ovarian = system: OVCAR-5 ovarian
OVCAR-8 ovarian = system: OVCAR-8 ovarian
RPMI-8226 leukemia = system: RPMI-8226 leukemia
RXF-631 renal = system: RXF-631 renal
SF-268 CNS = system: SF-268 CNS
SF-295 CNS = system: SF-295 CNS
SK-MEL-2 melanoma = system: SK-MEL-2 melanoma
SK-MEL-28 melanoma = system: SK-MEL-28 melanoma
SK-MEL-5 melanoma = system: SK-MEL-5 melanoma
SK-OV-3 ovarian = system: SK-OV-3 ovarian
SN12C renal = system: SN12C renal
SNB-19 CNS = system: SNB-19 CNS
SNB-75 CNS = system: SNB-75 CNS
SNB-78 CNS = system: SNB-78 CNS
SR leukemia = system: SR leukemia
SW-620 colon = system: SW-620 colon
TK-10 renal = system: TK-10 renal
U251 CNS = system: U251 CNS
UACC-257 melanoma = system: UACC-257 melanoma
UACC-62 melanoma = system: UACC-62 melanoma
UO-31 renal = system: UO-31 renal

Question: Which TGI (786-0 renal) does the source give for `COC(=O)C1Cc2c(n(C)c3ccccc23)C(c2ccccc2)N1` (centres undefined) here?
Answer: > 100 µM

Question: What about the TGI (A498 renal) of the same compound?
Answer: > 100 µM

Question: What about the TGI (A549 NSCLC) of the same compound?
Answer: > 100 µM

Question: And the TGI (ACHN renal)?
Answer: > 100 µM

Question: What about the TGI (CAKI-1 renal) of the same compound?
Answer: > 100 µM

Question: What about the TGI (CCRF-CEM leukemia) of the same compound?
Answer: > 100 µM

Question: What about the TGI (COLO 205 colon) of the same compound?
Answer: > 100 µM

Question: What about the TGI (DMS 114 small cell lung) of the same compound?
Answer: > 100 µM

Question: And the TGI (DMS 273 small cell lung)?
Answer: > 100 µM

Question: And the TGI (EKVX NSCLC)?
Answer: > 100 µM

Question: And the TGI (HCC-2998 colon)?
Answer: > 100 µM

Question: And the TGI (HCT-116 colon)?
Answer: > 100 µM

Question: What about the TGI (HCT-15 colon) of the same compound?
Answer: > 100 µM

Question: What about the TGI (HL-60(TB) leukemia) of the same compound?
Answer: 48 µM

Question: And the TGI (HOP-18 NSCLC)?
Answer: > 100 µM

Question: And the TGI (HOP-92 NSCLC)?
Answer: > 100 µM

Question: And the TGI (HT29 colon)?
Answer: > 100 µM

Question: And the TGI (IGROV1 ovarian)?
Answer: > 100 µM

Question: And the TGI (K-562 leukemia)?
Answer: > 100 µM

Question: And the TGI (KM12 colon)?
Answer: > 100 µM

Question: And the TGI (KM20L2 colon)?
Answer: > 100 µM

Question: What about the TGI (LOX IMVI melanoma) of the same compound?
Answer: > 100 µM

Question: And the TGI (LXFL 529 NSCLC)?
Answer: > 100 µM

Question: And the TGI (M14 melanoma)?
Answer: > 100 µM

Question: What about the TGI (M19-MEL melanoma) of the same compound?
Answer: > 100 µM

Question: What about the TGI (MALME-3M melanoma) of the same compound?
Answer: > 100 µM

Question: What about the TGI (MOLT-4 leukemia) of the same compound?
Answer: > 100 µM

Question: What about the TGI (NCI-H226 lung) of the same compound?
Answer: > 100 µM

Question: And the TGI (NCI-H23 lung)?
Answer: > 100 µM

Question: What about the TGI (NCI-H460 lung) of the same compound?
Answer: > 100 µM

Question: What about the TGI (NCI-H522 lung) of the same compound?
Answer: 93.1 µM

Question: What about the TGI (OVCAR-3 ovarian) of the same compound?
Answer: > 100 µM

Question: And the TGI (OVCAR-4 ovarian)?
Answer: > 100 µM

Question: What about the TGI (OVCAR-5 ovarian) of the same compound?
Answer: > 100 µM

Question: What about the TGI (OVCAR-8 ovarian) of the same compound?
Answer: > 100 µM

Question: What about the TGI (RPMI-8226 leukemia) of the same compound?
Answer: > 100 µM

Question: What about the TGI (RXF-631 renal) of the same compound?
Answer: > 100 µM

Question: And the TGI (SF-268 CNS)?
Answer: > 100 µM

Question: And the TGI (SF-295 CNS)?
Answer: > 100 µM

Question: And the TGI (SK-MEL-2 melanoma)?
Answer: > 100 µM

Question: What about the TGI (SK-MEL-28 melanoma) of the same compound?
Answer: > 100 µM

Question: What about the TGI (SK-MEL-5 melanoma) of the same compound?
Answer: 93 µM

Question: And the TGI (SK-OV-3 ovarian)?
Answer: > 100 µM

Question: And the TGI (SN12C renal)?
Answer: > 100 µM

Question: And the TGI (SNB-19 CNS)?
Answer: > 100 µM

Question: And the TGI (SNB-75 CNS)?
Answer: > 100 µM

Question: What about the TGI (SNB-78 CNS) of the same compound?
Answer: > 100 µM

Question: And the TGI (SR leukemia)?
Answer: > 100 µM

Question: What about the TGI (SW-620 colon) of the same compound?
Answer: > 100 µM

Question: And the TGI (TK-10 renal)?
Answer: > 100 µM

Question: What about the TGI (U251 CNS) of the same compound?
Answer: > 100 µM

Question: And the TGI (UACC-257 melanoma)?
Answer: 32 µM

Question: What about the TGI (UACC-62 melanoma) of the same compound?
Answer: > 100 µM

Question: What about the TGI (UO-31 renal) of the same compound?
Answer: > 100 µM
